In assay [1] the test system is Bcl-2 family and PKC isoform mRNA. The assay is described as follows: Gene expression by quantitative real-time RT-PCR in serum-free PC12 cells. The conditions noted are these: 1 μM, 24 h, serum-free PC12. It counts as cell-based, rat. The protocol: (vi) Total RNA extraction. PC12 cells were cultured in DMEM containing 5% FCS and 10% horse serum until confluence. At the day of the experiment, the medium was replaced with fresh medium without serum and rasagiline or propargylamine at various concentrations were administered for 24 h. At the end of incubation, the medium was removed and isolation of total RNA was performed, using Tri Reagent™ Isolation reagent. Total RNA was treated with DNase-RNase free (Roche Diagnostics, Mannheim, Germany) for 30 min at 37° C. and subsequently extracted by a round of phenol:chlorophorm:isoamylalcohol (25:24:1), followed by one of chloroform. After precipitation with NaOAc (0.3 M) and ethyl alcohol, the RNA pellet was washed with 80% ethyl alcohol (12,000×g) for 10 min and resuspended in 50-100 μl of diethylpyrocarbonate (DEPC)-treated water and incubated for 5-10 min at 56° C. to facilitate resuspension.
(vi) Reverse transcription (RT) and quantitative real-time RT-PCR. In order to confirm the results obtained with the customized cDNA expression micro-array, 2 μg of total RNA were denatured and reverse transcribed using random hexanucleotides (0.5 μg/μl). Secondary structures of the template and primer (total volume of 16 μl) were opened by incubation for 5 min at 70° C. and immediately cooled on ice. Reaction mix (9 μl) containing reaction buffer, dNTP (0.5 mm each), RNAasin™ RNAase inhibitor (Promega) (25U) and M-MLV reverse transcriptase (200U) was added and samples were incubated at 39° C. for 1 h. For every RNA preparation a negative control was run in parallel consisting of a direct amplification of the RNA sample, omitting the RT step. The samples were transferred to 92° C. for 10 min, in order to deactivate the enzyme, and then cooled to 4° C.
Quantitative real-time PCR, using LightCycler and FastStart DNA Master SYBR Green I ready-to use PCR mix, was performed according to the manufacture's protocol (Roche Diagnostics, Mannheim, Germany). cDNA (40 ng) was amplified in 20 μl total volume. The sequences of the primers and the size of the products are described in Table 1. The results are analyzed on the provided program of the LightCycler. The relative expression level of a given mRNA was assessed by normalizing to the housekeeping gene 18S-rRNA and compared with control values.
In this experiment, we examined whether Bcl-2 family proteins mediate the pro-survival effect of rasagiline, using serum-starved rat pheochromocytoma PC12 cell line as a model of neuronal apoptosis. PC12 cells were maintained in full-serum (control), or in serum-free (SF) media in the absence or presence of various concentrations of rasagiline (0.001, 0.1, 1 and 10 μM) for 3 h or 24 h, and gene expression was measured by quantitative real-time RT-PC. The real-time RT-PCR consists of RNA samples isolated from said PC-12 cells. Each gene expression was normalized to the housekeeping gene, 18S-rRNA, since this transcript was reported to be less susceptible to the influence by external factors.
The effect of propargylamine on Bad and Bax mRNA levels was examined as described in Example 5 above.

In another assay the target is T1, rat brain MAO-B (Rattus norvegicus, UniProt P19643).
T1 construct: from tissue; host or cells: rat brain homogenate
T1 sequence (P19643 1-520): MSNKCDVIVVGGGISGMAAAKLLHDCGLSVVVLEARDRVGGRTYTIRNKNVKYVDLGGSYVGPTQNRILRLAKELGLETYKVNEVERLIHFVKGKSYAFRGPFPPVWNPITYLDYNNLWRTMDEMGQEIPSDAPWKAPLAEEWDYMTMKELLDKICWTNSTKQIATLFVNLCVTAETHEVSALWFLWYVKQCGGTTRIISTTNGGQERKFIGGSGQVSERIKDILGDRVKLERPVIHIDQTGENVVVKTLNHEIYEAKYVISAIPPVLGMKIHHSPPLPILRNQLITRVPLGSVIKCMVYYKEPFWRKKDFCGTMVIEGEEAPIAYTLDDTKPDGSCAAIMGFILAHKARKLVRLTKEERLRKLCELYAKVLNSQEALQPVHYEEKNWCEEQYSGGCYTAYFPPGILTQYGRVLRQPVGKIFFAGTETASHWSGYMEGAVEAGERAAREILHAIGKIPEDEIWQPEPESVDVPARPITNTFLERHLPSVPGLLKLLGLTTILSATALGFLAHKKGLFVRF
Kind of assay: In vitro inhibition of rat brain MAO-B. The class given is biochemical. On the procedure:
To determine the activity of MAO-A and MAO-B, the test compound is added to a suitable dilution of the enzyme preparation from rat brain (70 μg protein for MAO-B and 150 μg MAO-A assay) in 0.05 M phosphate buffer (pH 7.4). Tthe mixture is incubated together with […], a specific inhibitor of MAO-B (for determination of MAO-A) or with […], a specific inhibitor of MAO-A (for determination of MAO-B). Incubation is carried for 1 h at 37° C. before addition of ^14C-5-hydroxytryptamine binoxalate ([…]), for determination of MAO-A, or ^14C-phenylethylamine ([…]), for determination of MAO-B, and incubation is continued for 30 min or 20 min, respectively. The reaction is stopped with 2 M ice-cold citric acid, and the metabolites are extracted and determined by liquid-scintillation counting in cpm units.
In another experiment, the in vitro inhibitory activity of propargylamine (P) against rat brain MAO-B was tested. Propargylamine (0.1, 1, 10, 100 μM) was added to buffer containing 0.05 μM clorgylin and was incubated with the tissue homogenate for 60 minutes at 37° C. before addition of ^14C-5-phenylethylamine. MAO-BA activity in presence of the test compound was expressed as a percentage of that in control samples. Mean values shown±SEM.

pIC50: −log10 of the molar value.

Regarding `C#CCN` [propargylamine], in assay [1], the Bad gene expression entry was “restored both Bax and Bad gene expressions to that of full serum level”; the Bax gene expression entry was “restored both Bax and Bad gene expressions to that of full serum level”. Further, the “MAO-B versus MAO-A selectivity” value at rat brain MAO-B (from IC50 values, rat brain) is listed as “preferentially selective for MAO-B inhibition”. The pIC50 against rat brain MAO-B (rat brain homogenate, 60 min preincubation at 37° C., 14C-phenylethylamine) is roughly 5.00.

These data come from US20050191348A1 (priority 2004, published 2005).
